Laboratory results: US20240279207A1, “SUBSTITUTED ACYL SULFONAMIDES FOR TREATING CANCER” (The Broad Institute, Inc., priority 2020, published 2024)

Columns and labels:
[1] = target: T1, Recombinant human His-tagged Kat6a protein (amino acids 194-810) (Homo sapiens, UniProt Q92794); assay: Kat6a activity assay (TR-FRET, acetylation of Histone-H4-derived peptide); type: biochemical; settings: 60 mins at 22° C., 220 nM H4 peptide, 600 nM Acetyl Coenzyme A, read-out: KAT6A - DPF/HAT domain IC50 [mol/l] (arithmetic mean)
T1 construct: Kat6a protein (amino acids 194-810); His

[2] = tested on: ESR1 transcription in MVLN cells; assay: MVLN reporter assay: repression of ESR1 transcription (luciferase signal); type: cell-based; settings: Homo sapiens, MVLN, 24 h, luciferase signal after 24 h, read-out: MVLN reporter assay, IC50 [M] (arithmetic mean)
Summary of the method: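 MVLN cells, expressing ER and stably carrying a vitellogenin A2 ERE-luciferase reporter, treated with compound in duplicate; luciferase read after 24 h with Steadylite plus. Cell density checked in parallel by Alamar Blue fluorescence (530/590 nm, 2 h) before the luciferase read.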

MDA-MB-436 cells = assay: MDA-MB-436 proliferation assay (negative control cell line); type: cell-based; settings: Homo sapiens, 144 h, Alamar Blue, read-out: MDA-MB-436 proliferation assay, EC50 [M] (arithmetic mean)
Source text: (§1) For compound characterization cell survival assays were routinely run in two cell lines. ZR-75-1 is a breast carcinoma cell line containing a focal KAT6A amplification and high KAT6A protein expression. Proliferation of this cell line is inhibited upon treatment with KAT6A inhibitors. As a negative control cell line MDA-MB-436 were used. These cells carry a […] deletion of the KAT6A gene, have a low KAT6A protein expression and are not growth inhibited upon treatment with KAT6A inhibitors.
(§2) For measurements cell lines were plated at the below indicated concentration per […] in 96-well plates in a humidified incubator at 37° C. and 5% CO2.
MDA-MB-436 (CLS, 300278; breast adenocarcinoma); 3000 cells per well; culture medium: DMEM/Ham's F12 (Biochrom #FG 4815) medium containing 2.5% FBS (Biochrom #S0615).
(§3) Each sample was prepared as triplicate and rim wells were excluded. Plates were incubated at 37° C. and 5% CO2 for 144 h. Cell viability was measured by adding 10 μL of Alamar Blue Reagent (Invitrogen #DAL 1100) and plates were incubated for 2 h at 37° C. and 5% CO2. Fluorescence was measured at 590 nm wavelength with a Tecan Spark or Victor X3 MTP-Reader (PerkinElmer).

ZR-75-1 cells = assay: ZR-75-1 proliferation assay; type: cell-based; settings: Homo sapiens, ZR-75-1, 144 h, Alamar Blue, read-out: ZR75-1 proliferation assay, EC50 [M] (arithmetic mean)
Source text: as §1, §2
ZR-75-1 (ATCC, CRL-1500; breast carcinoma); 3000 cells per well; culture medium: RPMI 1640 (Biochrom #FG 1215) medium containing 2.5% FBS (Biochrom #S0615).
as §3

LCLC97TM1 = LCLC97TM1 proliferation assay; type: cell-based; settings: Homo sapiens, LCLC-97TM1, LCLC97TM1; read-out: LCLC97TM1 proliferation assay; EC50 [M] (arithmetic mean)

T1 sequence (Q92794 194-810): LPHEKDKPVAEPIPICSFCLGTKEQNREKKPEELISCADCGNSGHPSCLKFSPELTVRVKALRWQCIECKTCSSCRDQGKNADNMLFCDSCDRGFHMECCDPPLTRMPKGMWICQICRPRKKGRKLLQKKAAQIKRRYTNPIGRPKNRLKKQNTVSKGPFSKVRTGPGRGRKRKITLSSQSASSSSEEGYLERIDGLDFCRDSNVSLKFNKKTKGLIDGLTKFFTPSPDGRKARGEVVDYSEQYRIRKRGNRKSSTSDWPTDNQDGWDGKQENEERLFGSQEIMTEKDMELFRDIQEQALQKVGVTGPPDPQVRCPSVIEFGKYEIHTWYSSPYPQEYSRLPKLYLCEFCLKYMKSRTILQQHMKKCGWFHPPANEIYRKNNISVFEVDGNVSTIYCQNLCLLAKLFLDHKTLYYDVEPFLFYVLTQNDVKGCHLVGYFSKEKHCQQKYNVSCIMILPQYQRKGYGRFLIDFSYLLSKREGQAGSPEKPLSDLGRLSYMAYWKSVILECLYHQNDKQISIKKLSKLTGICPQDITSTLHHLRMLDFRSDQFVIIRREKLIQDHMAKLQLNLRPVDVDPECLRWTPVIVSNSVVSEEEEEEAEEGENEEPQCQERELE

Compound	IC50 [1] [nM]	IC50 [2] [M]	EC50 (MDA-MB-436 cells) [M]	EC50 (ZR-75-1 cells) [M]	EC50 (LCLC97TM1) [M]
O=C(NS(=O)(=O)c1ccccc1OC(F)(F)F)c1cc2c(F)cc(N3CCC3)cc2o1 [Example 138, 6-(Azetidin-1-yl)-4-fluoro-N-[2-(trifluoromethoxy)benzene-1-sulfonyl]-1-benzofuran-2-carboxamide]	69.4	2.06e-07	> 2e-05	–	–
COc1ccc(C(C)(C)C)cc1S(=O)(=O)NC(=O)c1cc2c(F)cc(N3CCC3)cc2o1 [Example 127, 6-(Azetidin-1-yl)-N-(5-tert-butyl-2-methoxybenzene-1-sulfonyl)-4-fluoro-1-benzofuran-2-carboxamide]	–	3.54e-09	> 2e-05	2.55e-08	5.73e-08
O=C(NS(=O)(=O)c1cccc2c1OC(F)(F)C(F)(F)O2)c1cc2c(F)cc(N3CCC3)cc2o1 [Example 140, 6-(Azetidin-1-yl)-4-fluoro-N-(2,2,3,3-tetrafluoro-2,3-dihydro-1,4-benzodioxine-5-sulfonyl)-1-benzofuran-2-carboxamide]	27.6	2.91e-07	> 2e-05	–	–
CCOc1ccccc1S(=O)(=O)NC(=O)c1cc2ccc(N3CC(C)(C)C3)cc2o1 [Example 124, 6-(3,3-dimethylazetidin-1-yl)-N-(2-ethoxybenzene-1-sulfonyl)-1-benzofuran-2-carboxamide]	> 20000	> 2e-05	> 2e-05	–	–
Cc1ccc2cccc(S(=O)(=O)NC(=O)c3cc4c(F)cc(N5CCC5(C)C)cc4o3)c2n1 [Example 218, 6-(2,2-Dimethylazetidin-1-yl)-4-fluoro-N-[(2-methyl-8-quinolyl)sulfonyl]benzofuran-2-carboxamide]	271	1.91e-06	> 2e-05	–	–
CCc1cccc(OC)c1S(=O)(=O)NC(=O)c1cc2c(F)cc(N3CCC3)cc2o1 [Example 136, 6-(azetidin-1-yl)-N-(2-ethyl-6-methoxybenzene-1-sulfonyl)-4-fluoro-1-benzofuran-2-carboxamide]	45.6	1.4e-07	> 2e-05	–	–
CCOc1ccc(Br)cc1S(=O)(=O)NC(=O)c1cc2c(F)cc(N3CCC3)cc2o1 [Example 135, 6-(Azetidin-1-yl)-N-(5-bromo-2-ethoxybenzene-1-sulfonyl)-4-fluoro-1-benzofuran-2-carboxamide]	16.5	9.74e-08	> 2e-05	–	–
CC1(C)CCN1c1cc(F)c2cc(C(=O)NS(=O)(=O)c3ccccc3)oc2c1 [Example 216, N-(benzenesulfonyl)-6-(2,2-dimethylazetidin-1-yl)-4-fluoro-benzofuran-2-carboxamide]	9560	> 2e-05	> 2e-05	–	–
CCOc1ccccc1S(=O)(=O)NC(=O)c1cc2ccc(N3CC(C)(F)C3)cc2o1 [Example 116, N-(2-Ethoxybenzene-1-sulfonyl)-6-(3-fluoro-3-methylazetidin-1-yl)-1-benzofuran-2-carboxamide]	2290	1.45e-06	–	5.72e-06	> 2e-05
CCOc1ccccc1S(=O)(=O)NC(=O)c1cc2c(F)cc(N3CCC3C)cc2o1 (racemic) [Example 223, N-(2-Ethoxyphenyl)sulfonyl-4-fluoro-6-(2-methylazetidin-1-yl)benzofuran-2-carboxamide (rac)]	189	7.22e-07	> 2e-05	–	–
O=C(NS(=O)(=O)c1ccccc1-c1ccccc1)c1cc2c(F)cc(N3CCC3)cc2o1 [Example 19, 6-(Azetidin-1-yl)-N-([1,1′-biphenyl]-2-sulfonyl)-4-fluoro-1-benzofuran-2-carboxamide]	18.8	2.06e-07	> 2e-05	–	–
CC1CCN1c1cc(F)c2cc(C(=O)NS(=O)(=O)c3ccccc3-c3ccccc3)oc2c1 (racemic) [Example 222, 4-Fluoro-6-(2-methylazetidin-1-yl)-N-(2-phenylphenyl)sulfonyl-benzofuran-2-carboxamide (rac)]	129	1.44e-06	> 2e-05	–	–
CCOc1ccccc1S(=O)(=O)NC(=O)c1cc2ccc(N3CC(c4ccccc4)C3)cc2o1 [Example 120, N-(2-ethoxybenzene-1-sulfonyl)-6-(3-phenylazetidin-1-yl)-1-benzofuran-2-carboxamide]	6520	> 2e-05	> 2e-05	–	–
CCOc1ccccc1S(=O)(=O)NC(=O)c1cc2c(F)cc(N3CCC3(C)C)cc2o1 [Example 219, 6-(2,2-Dimethylazetidin-1-yl)-N-(2-ethoxyphenyl)sulfonyl-4-fluoro-benzofuran-2-carboxamide]	1850	3.86e-06	> 2e-05	–	–
CC1CCN1c1cc(F)c2cc(C(=O)NS(=O)(=O)c3ccccc3)oc2c1 (racemic) [Example 220, N-(Benzenesulfonyl)-4-fluoro-6-(2-methylazetidin-1-yl)benzofuran-2-carboxamide (rac)]	982	6.23e-06	> 2e-05	–	–
Cc1ccc2cccc(S(=O)(=O)NC(=O)c3cc4c(F)cc(N5CCC5C)cc4o3)c2n1 (racemic) [Example 221, 4-Fluoro-6-(2-methylazetidin-1-yl)-N-[(2-methyl-8-quinolyl)sulfonyl]benzofuran-2-carboxamide (rac)]	61.5	3.82e-07	> 2e-05	–	–
CCOc1ccccc1S(=O)(=O)NC(=O)c1cc2ccc(N3CC4(CC4)C3)cc2o1 [Example 122, 6-(5-Azaspiro[2.3]hexan-5-yl)-N-(2-ethoxybenzene-1-sulfonyl)-1-benzofuran-2-carboxamide]	> 20000	> 2e-05	> 2e-05	–	–
O=C(NS(=O)(=O)c1cc(C(F)(F)F)ccc1NCC(F)F)c1cc2c(F)cc(N3CCC3)cc2o1 [Example 92, 6-(Azetidin-1-yl)-N-{2-[(2,2-difluoroethyl)amino]-5-(trifluoromethyl)benzene-1-sulfonyl}-4-fluoro-1-benzofuran-2-carboxamide]	464	> 2e-05	–	–	–
CCSc1nc2ccccn2c1S(=O)(=O)NC(=O)c1cc2c(F)cc(N3CCC3)cc2o1 [Example 148, 6-(Azetidin-1-yl)-N-[2-(ethylsulfanyl)imidazo[1,2-a]pyridine-3-sulfonyl]-4-fluoro-1-benzofuran-2-carboxamide]	274	3.14e-06	–	–	–
CCOc1cccc(OCC(F)F)c1S(=O)(=O)NC(=O)c1cc2c(F)cc(N3CCC3)cc2o1 [Example 81, 6-(Azetidin-1-yl)-N-[2-(2,2-difluoroethoxy)-6-ethoxybenzene-1-sulfonyl]-4-fluoro-1-benzofuran-2-carboxamide]	18	1.57e-07	–	–	–
CCS(=O)(=O)c1nc2ccccn2c1S(=O)(=O)NC(=O)c1cc2c(F)cc(N3CCC3)cc2o1 [Example 167, 6-(Azetidin-1-yl)-N-[2-(ethanesulfonyl)imidazo[1,2-a]pyridine-3-sulfonyl]-4-fluoro-1-benzofuran-2-carboxamide]	517	> 2e-05	–	–	–
Cc1noc(-c2ccccc2S(=O)(=O)NC(=O)c2cc3c(F)cc(N4CCC4)cc3o2)n1 [Example 37, 6-(Azetidin-1-yl)-4-fluoro-N-[2-(3-methyl-1,2,4-oxadiazol-5-yl)benzene-1-sulfonyl]-1-benzofuran-2-carboxamide]	181	7.04e-07	–	–	–
CN(C)C(=O)c1cccnc1S(=O)(=O)NC(=O)c1cc2c(F)cc(N3CCC3)cc2o1 [Example 95, 2-{[6-(Azetidin-1-yl)-4-fluoro-1-benzofuran-2-carbonyl]sulfamoyl}-N,N-dimethylpyridine-3-carboxamide]	1520	> 2e-05	–	–	–
Cc1ccc(F)c(S(=O)(=O)NC(=O)c2cc3c(F)cc(N4CCC4)cc3o2)c1 [Example 43, 6-(Azetidin-1-yl)-4-fluoro-N-(2-fluoro-5-methylbenzene-1-sulfonyl)-1-benzofuran-2-carboxamide]	218	9.91e-07	–	–	–
CC1(C)CCN1c1cc(F)c2cc(C(=O)NS(=O)(=O)c3ccccc3-c3ccccc3)oc2c1 [Example 217, 6-(2,2-Dimethylazetidin-1-yl)-4-fluoro-N-(2-phenylphenyl)sulfonyl-benzofuran-2-carboxamide]	–	1.05e-05	> 2e-05	–	–
